In patent US20110244025A1, “MODIFIED OLIGORIBONUCLEOTIDE ANALOGS WITH ENHANCED IMMUNOSTIMULATORY ACTIVITY” (priority 2005, published 2011):
“Also recorded” adds a separate entry of the source. Read-outs that look alike come from different tables or passages of the source. Oligonucleotides are written 5' to 3', each unit as a sugar letter and its base; * is a phosphorothioate linkage, no mark a phosphodiester; rarer units and linkages stand in square brackets, end groups in braces. Plain capitals give the bases only. r = 2'-OH (RNA)

Legend:
[1] = Stability against nuclease degradation in human serum (IP-RP-HPLC); type: in vitro ADME
Method: Oligoribonucleotides R-1075 (SEQ ID NO:206), without triethylene glycol (teg) modification, and R-1907, with teg modification, were analysed using ion-pair reverse phase high pressure liquid chromatography (IP-RP-HPLC) following incubation in water or human serum for 1 to 60 minutes. While both of these oligoribonucleotides have fully phosphorothioate backbones, R-1075 is more than twice as long (18 nucleotides) as R-1907 (8 nucleotides). R-1075 incubated in water for 1 minute produced a single, sharp peak upon IP-RP-HPLC. […] R-1907 also produced a single, sharp peak following incubation in water for 1 minute. […] In fact, the peak height for R-1907 decreased by only about 50 percent following incubation in human serum for 60 minutes.

[2] = test system: human peripheral blood mononuclear cells (PBMC); test: TNF-α production by human PBMC (ELISA of culture supernatants); type: cell-based; details: human PBMC from three donors, 24 hours, oligonucleotide 0.001-4 μM, in the presence of DOTAP (20 μg/ml); FIG. 3 and FIG. 4
Method: (§1) Human peripheral blood mononuclear cells (PBMC) were isolated from three donors and incubated for 24 hours in the presence of various test or control oligonucleotides or control conditions, in either the presence or absence of DOTAP (20 μg/ml). Oligonucleotides were added at different concentrations ranging from 0.001-4 μM. Culture supernatants were then collected and then analyzed by separate enzyme-linked immunosorbent assays (ELISAs) specific for human interferon alpha (IFN-α) and tumor necrosis factor alpha (TNF-α).
(§2) Control oligonucleotides and conditions included R-1012, rU*rU*rU*rU*rU*rU*rU*rU, where * represents phosphorothioate linkage and rU represents uridine; R-1075 (SEQ ID NO:206, fully phosphorothioate backbone), R-1362, rU*rU*rG*rU*rU*rG*rU*rU*rG*rU*rU*rG*rU*rU*rG*rU*rU*rG*rU*rU (SEQ ID NO:331), where * again represents phosphorothioate linkage, rU again represents uridine, and rG represents guanosine; CpG oligodeoxynucleotide 2395, T*C*G*T*C*G*T*T*T*T*C*G*G*C*G*C*G*C*G*C*C*G (SEQ ID NO:330), lipopolysaccharide (LPS), DOTAP, and no additive (w/o).
(§3) Test oligonucleotides included the following modifications of R-1012: R-1907, rU*rU*rU*rU*rU*rU*rU*rU-teg, where teg represents triethylene glycol; R-1908, rU*rU*rU*rU*rU*rU*rU*5SrU-teg, where 5S represents a linkage according to Formula II wherein X is O, X^1 is SH, X^2 is O, and X^3 is S; R-1909, rU*rU*rU*rU*rU*5SrU*rU*5SrU-teg; R-1910, rU*rU*rU*5SrU*rU*5SrU*rU*5SrU-teg; and R-1911, rU*5SrU*rU*5SrU*rU*5SrU*rU*5SrU-teg.

[3] = test system: human peripheral blood mononuclear cells (PBMC); test: IFN-α production by human PBMC (ELISA of culture supernatants); type: cell-based; details: human PBMC from three donors, 24 hours, oligonucleotide 0.001-4 μM, in the presence of DOTAP (20 μg/ml); FIG. 1 and FIG. 2
Method: as §1, §2, §3

Row | Substance | IP-RP-HPLC peak of the oligoribonucleotide after incubation in human serum ([1]; human serum, 1 minute, compared with incubation in water for 1 minute) | TNF-α production [2] | IFN-α production [3] | IP-RP-HPLC peak of the oligoribonucleotide after incubation in human serum [1] | decrease of IP-RP-HPLC peak height after incubation in human serum [1]
1 | R-1075: control oligoribonucleotide, SEQ ID NO:206 (CCGUCUGUUGUGUGACUC), fully phosphorothioate backbone, 18 nucleotides, without teg modification (rC*rC*rG*rU*rC*rU*rG*rU*rU*rG*rU*rG*rU*rG*rA*rC*rU*rC) [reference compound] | essentially completely disappeared |  |  |  | 
2 | rU*5SrU*rU*5SrU*rU*5SrU*rU*5SrU-teg [R-1911] |  | significantly higher amounts of TNF-a compared to unmodified R-1012 | did not induce significant amounts of IFN-α |  | 
3 | rU*rU*rU*5SrU*rU*5SrU*rU*5SrU-teg [R-1910] |  | significantly higher amounts of TNF-a compared to unmodified R-1012 | did not induce significant amounts of IFN-α |  | 
4 | rU*rU*rU*rU*rU*5SrU*rU*5SrU-teg [R-1909] |  | significantly higher amounts of TNF-a compared to unmodified R-1012 | increase in IFN-α induction compared to R-1907 |  | 
5 | rU*rU*rU*rU*rU*rU*rU*5SrU-teg [R-1908] |  | significantly higher amounts of TNF-a compared to unmodified R-1012 | increase in IFN-α induction compared to R-1907 |  | 
6 | rU*rU*rU*rU*rU*rU*rU*rU-teg [R-1907] |  | enhanced TNF-α production compared to unmodified R-1012; also recorded: significantly higher amounts of TNF-a compared to unmodified R-1012 | reduced IFN-α production compared to unmodified R-1012 | persisted essentially unchanged | about 50%
